Measured values: ChEMBL document CHEMBL1759905, “Nonsteroidal 2,3-dihydroquinoline glucocorticoid receptor agonists with reduced PEPCK activation” (Bioorg Med Chem Lett, 2011)

Key:
[1] = biological target: T1, Glucocorticoid receptor (Homo sapiens) (UniProt P04150); test: Agonist activity at glucocorticoid receptor in human HepG2 cells co-transfected with GRE assessed as GRE activation by luciferase reporter gene assay relative to Dexamethasone; format: functional, cell-based; design: concentration or dose not given beside the values
T1 sequence (whole entry): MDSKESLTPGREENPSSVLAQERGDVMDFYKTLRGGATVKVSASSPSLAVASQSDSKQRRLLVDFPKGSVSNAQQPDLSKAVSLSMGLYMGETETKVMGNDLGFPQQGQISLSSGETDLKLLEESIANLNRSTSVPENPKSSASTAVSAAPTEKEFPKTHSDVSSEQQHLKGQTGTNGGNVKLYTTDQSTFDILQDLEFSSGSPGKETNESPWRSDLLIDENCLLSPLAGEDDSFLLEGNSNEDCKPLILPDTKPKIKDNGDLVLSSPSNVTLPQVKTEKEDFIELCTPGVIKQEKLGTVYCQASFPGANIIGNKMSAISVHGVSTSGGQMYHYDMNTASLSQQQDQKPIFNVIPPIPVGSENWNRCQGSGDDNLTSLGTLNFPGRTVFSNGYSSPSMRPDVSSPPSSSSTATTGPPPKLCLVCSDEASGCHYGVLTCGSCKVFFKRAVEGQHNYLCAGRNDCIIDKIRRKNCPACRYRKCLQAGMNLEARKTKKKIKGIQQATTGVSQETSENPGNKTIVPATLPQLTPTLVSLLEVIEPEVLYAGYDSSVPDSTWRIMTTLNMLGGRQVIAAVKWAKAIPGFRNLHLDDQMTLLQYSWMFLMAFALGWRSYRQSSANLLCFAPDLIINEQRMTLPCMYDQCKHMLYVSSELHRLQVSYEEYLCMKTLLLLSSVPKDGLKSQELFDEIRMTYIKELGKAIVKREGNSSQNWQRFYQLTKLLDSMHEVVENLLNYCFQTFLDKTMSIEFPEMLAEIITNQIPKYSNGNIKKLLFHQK

Glucocorticoid receptor [2] = biological target: T2, Glucocorticoid receptor (Homo sapiens, UniProt P04150); test: Displacement of radiolabeled Dexamethasone from glucocorticoid receptor expressed in baculovirus
T2 sequence (P04150 whole entry): T1 sequence (whole entry)

[3] = biological target: T1, Glucocorticoid receptor (Homo sapiens); test: Transrepression activity at glucocorticoid receptor in human HepG2 cells assessed as inhibition of TNFalpha/IL1beta-stimulated NFkappaB-dependent E-selectin repression by luciferase reporter gene assay relative to Dexamethasone; format: cell-based; design: scale not given: the % may be the effect or the level left
Glucocorticoid receptor [4] = biological target: T2, Glucocorticoid receptor; test: Transrepression activity at glucocorticoid receptor in human HepG2 cells assessed as inhibition of TNFalpha/IL1beta-stimulated NFkappaB-dependent E-selectin repression by luciferase reporter gene assay; format: cell-based
[5] = biological target: T1, Glucocorticoid receptor (Homo sapiens); test: Transrepression activity at glucocorticoid receptor in human NHDF cells assessed as inhibition of IL-1beta-stimulated AP1 dependent IL-6 repression by ELISA relative to Dexamethasone; format: cell-based; design: concentration or dose not given beside the values
Glucocorticoid receptor [6] = biological target: T2, Glucocorticoid receptor; test: Transrepression activity at glucocorticoid receptor in human NHDF cells assessed as inhibition of IL-1beta-stimulated AP1 dependent IL-6 repression by ELISA; format: cell-based
[7] = biological target: T1, Glucocorticoid receptor (Homo sapiens); test: Agonist activity at glucocorticoid receptor in human HepG2 cells co-transfected with PEPCK assessed as GRE activation by luciferase reporter gene assay relative to Dexamethasone; format: functional, cell-based
Glucocorticoid receptor [8] = biological target: T2, Glucocorticoid receptor; test: Agonist activity at glucocorticoid receptor in human HepG2 cells co-transfected with PEPCK assessed as GRE activation by luciferase reporter gene assay; format: functional, cell-based
Progesterone receptor = biological target: T3, Progesterone receptor (Homo sapiens, UniProt P06401); test: Binding affinity to progesterone receptor
T3 sequence (P06401 whole entry): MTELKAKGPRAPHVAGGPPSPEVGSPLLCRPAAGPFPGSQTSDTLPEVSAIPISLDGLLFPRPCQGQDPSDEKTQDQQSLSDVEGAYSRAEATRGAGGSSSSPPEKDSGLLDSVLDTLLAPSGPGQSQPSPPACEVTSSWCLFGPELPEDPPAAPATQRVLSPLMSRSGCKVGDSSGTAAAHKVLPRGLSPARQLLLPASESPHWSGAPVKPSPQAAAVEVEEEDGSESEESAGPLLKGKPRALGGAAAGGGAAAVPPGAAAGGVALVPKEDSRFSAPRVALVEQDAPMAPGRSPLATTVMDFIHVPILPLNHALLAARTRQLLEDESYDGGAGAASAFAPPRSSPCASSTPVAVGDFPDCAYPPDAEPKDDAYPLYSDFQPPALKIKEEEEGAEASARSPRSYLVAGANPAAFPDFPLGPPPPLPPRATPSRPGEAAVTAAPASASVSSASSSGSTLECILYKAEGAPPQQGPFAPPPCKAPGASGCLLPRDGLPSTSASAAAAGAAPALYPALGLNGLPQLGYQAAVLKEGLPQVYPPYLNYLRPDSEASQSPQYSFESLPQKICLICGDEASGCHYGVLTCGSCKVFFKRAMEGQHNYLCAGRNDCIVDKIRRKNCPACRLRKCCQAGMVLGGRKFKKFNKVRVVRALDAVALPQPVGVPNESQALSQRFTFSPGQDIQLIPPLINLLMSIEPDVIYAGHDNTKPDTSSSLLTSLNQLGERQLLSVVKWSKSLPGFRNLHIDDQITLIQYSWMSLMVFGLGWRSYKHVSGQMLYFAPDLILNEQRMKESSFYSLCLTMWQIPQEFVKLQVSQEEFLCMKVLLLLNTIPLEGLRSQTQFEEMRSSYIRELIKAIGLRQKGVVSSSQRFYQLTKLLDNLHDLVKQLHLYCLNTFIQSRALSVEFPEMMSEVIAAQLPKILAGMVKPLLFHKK

Androgen receptor = biological target: T4, Androgen receptor (Homo sapiens, UniProt P10275); test: Binding affinity to androgen receptor
T4 sequence (P10275 whole entry): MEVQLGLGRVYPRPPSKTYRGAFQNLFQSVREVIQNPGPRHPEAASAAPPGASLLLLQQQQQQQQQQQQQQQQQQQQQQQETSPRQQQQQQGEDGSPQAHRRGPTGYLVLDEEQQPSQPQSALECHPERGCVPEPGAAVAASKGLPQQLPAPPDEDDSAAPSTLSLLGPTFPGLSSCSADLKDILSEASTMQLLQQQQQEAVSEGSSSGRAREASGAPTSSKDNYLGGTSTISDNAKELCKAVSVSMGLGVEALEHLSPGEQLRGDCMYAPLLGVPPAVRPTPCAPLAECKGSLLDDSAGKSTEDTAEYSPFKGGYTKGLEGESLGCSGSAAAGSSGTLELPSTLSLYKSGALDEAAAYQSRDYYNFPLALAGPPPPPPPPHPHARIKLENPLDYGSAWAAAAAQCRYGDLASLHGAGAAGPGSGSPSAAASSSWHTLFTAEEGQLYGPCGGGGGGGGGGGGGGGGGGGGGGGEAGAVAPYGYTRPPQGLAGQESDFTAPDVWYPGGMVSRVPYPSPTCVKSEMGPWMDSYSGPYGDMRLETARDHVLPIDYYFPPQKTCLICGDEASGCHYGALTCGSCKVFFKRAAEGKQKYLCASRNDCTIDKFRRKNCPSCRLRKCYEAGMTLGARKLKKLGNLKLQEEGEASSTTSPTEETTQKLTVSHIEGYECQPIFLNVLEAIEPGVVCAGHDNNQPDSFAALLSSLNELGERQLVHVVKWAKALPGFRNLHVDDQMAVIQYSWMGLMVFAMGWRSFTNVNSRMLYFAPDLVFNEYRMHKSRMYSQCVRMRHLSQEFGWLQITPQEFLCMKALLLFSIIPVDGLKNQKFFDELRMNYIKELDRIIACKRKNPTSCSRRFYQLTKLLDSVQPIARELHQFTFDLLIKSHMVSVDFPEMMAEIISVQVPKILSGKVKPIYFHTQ

Glucocorticoid receptor [9] = biological target: T2, Glucocorticoid receptor; test: Agonist activity at glucocorticoid receptor in human HepG2 cells co-transfected with GRE assessed as GRE activation by luciferase reporter gene assay; format: functional, cell-based

Row | Ki (Glucocorticoid receptor [2]) [nM] | Activity [3] [%] | IC50 (Glucocorticoid receptor [4]) [nM] | Activity [5] [%] | SMILES | further results
1 |  |  |  |  | C[C@]12C=CC(=O)C=C1CC[C@@H]1[C@@H]2[C@@H](O)C[C@@]2(C)[C@H]1CC[C@]2(O)C(=O)CO | Activity [1]: 129%
2 | 1.5 | 87 | 22 |  | COC(=O)C(C)(C)O/N=C1\CC(C)(C)Nc2cc(F)c(-c3cccc4c(C)c[nH]c34)c(F)c21 | 
3 | 370 |  |  |  | CC1(C)C/C(=N\O)c2c(cc(F)c(-c3cccc4cc[nH]c34)c2F)N1 | 
4 | 0.4 | 91 | 6.9 |  | CCO/N=C1\CC(C)(C)Nc2cc(F)c(-c3cccc4cc[nH]c34)c(F)c21 | 
5 | 0.7 | 100 | 14 | 99 | CO/N=C1/c2c(cc(F)c(-c3cccc4c(Cl)c[nH]c34)c2F)NC(C)(C)C1O (stereo not drawn) | IC50 (Glucocorticoid receptor [6]): 22 nM
6 |  |  |  | 90 | C[C@H]1c2c(cc(F)c(-c3cccc4cc[nH]c34)c2F)NC(C)(C)[C@@H]1O | Activity [1]: 138%; Activity [7]: 75%; EC50 (Glucocorticoid receptor [8]): 53 nM
7 | 5.8 | 74 | 8.8 |  | Cc1c[nH]c2c(-c3c(F)cc4c(c3F)/C(=N/OCc3ccccc3)CC(C)(C)N4)cccc12 | 
8 | 7 | 93 | 3.5 | 57 | CC1(C)C/C(=N\OC(C)(C)C)c2c(cc(F)c(-c3cccc4cc[nH]c34)c2F)N1 | IC50 (Glucocorticoid receptor [6]): 40 nM
9 | 31 | 67 | 51 |  | Cc1c[nH]c2c(-c3c(F)cc4c(c3F)/C(=N/Oc3ccccc3)CC(C)(C)N4)cccc12 | 
10 | 0.6 | 98 | 2.6 | 97 | CCO/N=C1/c2c(cc(F)c(-c3cccc4c(C)c[nH]c34)c2F)NC(C)(C)C1O (racemic) | Activity [1]: 138%; Activity [7]: 61%; EC50 (Glucocorticoid receptor [8]): 115 nM; IC50 (Glucocorticoid receptor [6]): 5.2 nM; Ki (Progesterone receptor): 27 nM; Ki (Androgen receptor): 430 nM; EC50 (Glucocorticoid receptor [9]): 1.5 nM
11 | 7 | 83 | 42 |  | CO/N=C1\CC(C)(C)Nc2cc(F)c(-c3cccc4cc[nH]c34)c(F)c21 | 
12 | 2700 |  |  |  | Cc1c[nH]c2c(-c3c(F)cc4c(c3F)/C(=N/OC(C)(C)C(=O)O)CC(C)(C)N4)cccc12 | 
